Experimental data reported in US20220298483A1, “METHOD AND COMPOSITION FOR CHONDROGENESIS” (National Health Research Institutes, priority 2021, published 2022).

B1: TGFβ3: pleomorphic growth factor commonly used to induce MSC chondrogenesis (R&D Systems) (protein, UniProt P10600 301-412, looked up)
Transforming growth factor …: ALDTNYCFRNLEENCCVRPLYIDFRQDLGWKWVHEPKGYYANFCSGPCPYLRSADTTHSTVLGLYNTLNPEASASPCCVPQDLEPLTILYYVGRTPKVEQLSNMVVKSCKCS

Key:
[1] = tested on: pellet-cultured iPSC-MSCs; test: 3D pellet culture chondrogenic differentiation of iPSC-MSCs, Alcian Blue staining and quantification; type: cell-based, human; settings: for pellet condensation and Alcian Blue staining compared to ChBM: ChBM plus modulator (10 ng/mL TGFβ3, 10 μM CHIR or XAV), 20 days (FIG. 3A top); for quantification of GAG production: Day 10, compared to ChBM and to TGFβ3 (FIG. 3A right)
Method: (§1) In vitro chondrogenic differentiation using 3D pellet culture was performed as described previously (Liu et al., 2011; Wang et al., 2018; Yen et al., 2013), 2×10^5 trypsinized were centrifuged 450×g for 10 minutes to form a pellet in expansion medium. After 16 hours, the medium was changed to chondrogenic basal medium (ChBM) consisting of low-glucose DMEM supplemented with 100 units/ml penicillin, 100 μg/ml streptomycin (all from Gibco-Thermo Fisher Scientific), 1% Insulin-transferrin-sodium selenite media supplement (Sigma-Aldrich, St Louis, Mo., USA), 2 mM L-glutamine (Gibco-Thermo Fisher Scientific), 10 μM L-Ascorbic acid 2-phosphate (Sigma-Aldrich), 100 nm dexamethasone (Sigma-Aldrich). Addition of TGFβ1 (10 ng/mL; R&D Systems, Minneapolis, Minn., USA), TGFβ3 (10 ng/mL; R&D Systems), XAV939 (XAV; 10 μM; Sigma-Aldrich) or CHIR99021 (CHIR; 10 μM; Sigma-Aldrich) to ChBM was performed as indicated. Cell pellets were harvested at the indicated day for analysis. Micromass culture-based chondrogenic differentiation was performed as previously reported, using 2×10^7 cells/ml of MSCs suspended in expansion medium and 20-μl drops spotted in the center of each well of a 24-well culture plate (Craft et al., 2015; Greco et al., 2011). After adhesion for 1.5 hour in a humidified incubator at 37° C. with 5% CO2, the medium was changed to ChBM with indicated regulators for chondrogenic induction.
(§2) Samples were washed with PBS and fixed with 4% paraformaldehyde, followed by pH 1.0 1% Alcian blue 8GX (Sigma-Aldrich) staining at room temperature overnight to detect sulfated proteoglycan matrix (Lev and Spicer, 1964). Quantification of Alcian blue staining extracted with 6M Guanidine-HCl was measured in 650 nm absorbance (Song et al., 2018).

iPSC-MSC pellets = test: Quantitative real-time PCR of chondrogenic, osteogenic and Wnt downstream genes; type: cell-based, human; settings: for RUNX2 mRNA expression compared to ChBM: 10 ng/mL in ChBM, Day 3 (FIG. 2E); for AXIN2 gene expression: 3 days (FIG. 4C); for COL2A1 gene expression / ACAN gene expression: no TGFβ unless added; for COL2A1 gene expression: Day 3 (FIG. 3C); for ACAN gene expression: Day 3 (FIG. 3D); for collagen 2A1 (COL2A1) gene expression: Day 3 (FIG. 1D); for aggrecan (ACAN) gene expression: Day 3 (FIG. 1E)
Method: as §1
Total RNA was isolated using TRI® reagent (Sigma-Aldrich), and quantified using NanoDrop spectrophotometer (Nyxor Biotech, Paris, France) (Wang et al., 2013). Reverse transcription was performed using RevertAid H Minus reverse transcriptase (Thermo Fisher Scientific), and PCR was performed on ABI PRISM 7500 system (Applied Biosystem, Foster City, Calif., USA) with SYBR Fast qPCR kit (KAPA Biosystems, Boston, Mass., USA). mRNA expression level was calculated by using the ΔΔCt method, and glyceraldehyde 3-phosphate dehydrogenase (GAPDH) level were used as housekeeping control. The results are normalized to ChBM to represent effects of indicated modulators.

[2] = tested on: micromass-cultured iPSC-MSCs; test: Micromass culture chondrogenic differentiation, Alcian Blue staining and quantification; type: cell-based, human; settings: ChBM plus modulator; for micromass structural condensation and Alcian Blue intensity: Day 10, compared to ChBM and TGFβ3 (FIG. 3B)
Method: as §1, §2

[3] = tested on: β-catenin in micromass-cultured iPSC-MSCs; test: Immunofluorescence quantification of β-catenin expression; type: cell-based, human; settings: 1 day (FIG. 8)
Method: Confocal immunofluorescence microscopy and fluorescence quantification of β-catenin in micromass-cultured iPSC-MSCs with the indicated modulators in chondrogenic induction medium for 1 day. Nuclei are labeled by DAPI. Scale bar, 5 μm. ChBM, chondrogenic basal medium without TGFβ. XAV, Wnt/β-catenin antagonist XAV939. CHIR, Wnt/β-catenin agonist CHIR99021. Data are represented as mean±S.D. *, p<0.05, **, p<0.01, ***, p<0.001.
Immunofluorescent staining was performed as previously reported (Wang et al., 2013). Paraformaldehyde-fixed cell samples were permeabilized with 0.1% Triton X-100 and nonspecific binding was blocked by 5% bovine serum albumin Primary antibodies against alpha smooth muscle actin (αSMA) (Sigma-Aldrich), β-catenin (BD Biosciences, San Jose, Calif., USA) or N-cadherin (Abcam, Cambridge, UK) were stained with 1:100 dilution for 24 hours, followed by species specific secondary antibody incubation overnight. Fluorescent signals were acquired by confocal microscopy (Leica TCS SP5 II, Wetzlar, Germany) and analyzed by Image J (NIH, Maryland, USA).

[4] = tested on: human MSCs—including iPSC-MSCs, ESC-MSCs and BM-MSCs; test: 3D pellet culture chondrogenesis in complete chondrogenic medium, Alcian Blue staining and GAG quantification; type: cell-based; settings: ChM containing TGFβ3, 10 μM; for pellet condensation / pellet integrity: Day 20, all 3 sources of MSCs
Method: as §1
Samples were washed with PBS and fixed with 4% paraformaldehyde, followed by pH 1.0 1% Alcian blue 8GX (Sigma-Aldrich) staining at room temperature overnight to detect sulfated proteoglycan matrix (Lev and Spicer, 1964). Quantification of Alcian blue staining extracted with 6M Guanidine-HCl was measured in 650 nm absorbance (Song et al., 2018). […]

[5] = tested on: N-cadherin/β-catenin interactions in micromass cultured iPSC-MSCs; test: Proximity ligation assay (PLA) for N-cadherin-β-catenin interaction; type: cell-based, human; settings: ChBM plus modulator, 1 day (FIG. 5C, 5D)
Method: Micromass cultured iPSC-MSCs were used for PLA and performed according to the manufacturer's protocol (Sigma-Aldrich). Antibodies against N-cadherin (Abcam) and β-catenin (BD Biosciences) were used for recognition. After ligation and amplification, the PLA signals from each pair of probes in close proximity (<40 nm) were visualized by confocal microscope (Leica TCS SP5 II) and signal counts were analyzed by Image J.

[6] = tested on: β-catenin in iPSC-MSC pellets; test: Immunofluorescent staining and quantification of nuclear β-catenin; type: cell-based, human; settings: ChBM plus modulator, 1 day, compared to ChBM or TGFβ3 (FIG. 4A, 4B)
Method: as §1, with “Micromass culture-based chondrogenic differentiation was performed as previously reported, using 2×10^7 cells/ml of MSCs suspended in expansion medium and 20-μl drops spotted in the center of each well of a 24-well culture plate (Craft et al., 2015; Greco et al., 2011). After adhesion for 1.5 hour in a humidified incubator at 37° C. with 5% CO2, the medium was changed to ChBM with indicated regulators for chondrogenic induction.” left out
(§3) Immunofluorescent staining was performed as previously reported (Wang et al., 2013). […] Fluorescent signals were acquired by confocal microscopy (Leica TCS SP5 II, Wetzlar, Germany) and analyzed by Image J (NIH, Maryland, USA).

[7] = tested on: N-cadherin in iPSC-MSCs cultured as micromass; test: Immunofluorescent staining of N-cadherin; type: cell-based, human; settings: ChBM plus modulator, 24 hours, compared to all other conditions (FIG. 5A, 5B)
Method: as §1, with “Micromass culture-based chondrogenic differentiation was performed as previously reported, using 2×10^7 cells/ml of MSCs suspended in expansion medium and 20-μl drops spotted in the center of each well of a 24-well culture plate (Craft et al., 2015; Greco et al., 2011). After adhesion for 1.5 hour in a humidified incubator at 37° C. with 5% CO2, the medium was changed to ChBM with indicated regulators for chondrogenic induction.” left out
as §3

[8] = tested on: Mouse BM-MSCs transplanted subcutaneously into wild-type C57BL/6J mice; test: In vivo ectopic chondrogenesis, Alcian Blue staining of transplanted MSC pellets; settings: local injection every 3 days, harvest Day 20 (FIG. 3F)
Method: Samples were washed with PBS and fixed with 4% paraformaldehyde, followed by pH 1.0 1% Alcian blue 8GX (Sigma-Aldrich) staining at room temperature overnight to detect sulfated proteoglycan matrix (Lev and Spicer, 1964). Quantification of Alcian blue staining extracted with 6M Guanidine-HCl was measured in 650 nm absorbance (Song et al., 2018). All animal work was performed according to protocols approved by the Institutional Animal Care and Use Committee. In vivo ectopic chondrogenesis was performed as previously reported with modifications (Zhao et al., 2014). Mouse BM-MSCs were cultured as 3D pellets in ChBM alone or with addition of TGFβ3, CHIR, or XAV for 3 days, then subcutaneously transplanted to dorsal skin of wild-type C57BL/6J mice, with local injections of modulators every 3 days till the pellet sample was harvested at Day 20. Collected samples were then frozen in optimal cutting temperature (OCT) compound and sliced to […] in thickness for histological staining.

[9] = ChBM plus modulator, 3 days (FIG. 4D)

Molecule | RUNX2 mRNA expression compared to ChBM (iPSC-MSC pellets) | micromass structural condensation and Alcian Blue intensity [2] | AXIN2 gene expression (iPSC-MSC pellets; ChBM plus modulator) | RUNX2 gene expression (iPSC-MSC pellets; [9]) | COL2A1 gene expression (iPSC-MSC pellets; ChBM plus modulator) | ACAN gene expression (iPSC-MSC pellets; ChBM plus modulator) | collagen 2A1 (COL2A1) gene expression (iPSC-MSC pellets; in ChM) | aggrecan (ACAN) gene expression (iPSC-MSC pellets; in ChM) | RUNX2 gene expression (iPSC-MSC pellets; in ChM, Day 3 (FIG. 1F)) | pellet condensation and Alcian Blue staining compared to ChBM [1] | quantification of GAG production ([1]; ChBM plus modulator) | pellet condensation / pellet integrity [4] | N-cadherin/β-catenin interactions, PLA signals [5] | nuclear β-catenin levels [6] | other results
C=C1[C@@H](C)[C@H]2[C@H](Cc3ccccc3)NC(=O)[C@]23[C@H](OC(C)=O)/C=C/[C@@](C)(O)C(=O)[C@@H](C)C/C=C/[C@H]3[C@@H]1O [CytoD, cytochalasin D] | – | – | – | – | – | – | – | – | – | – | – | – | – | – | pellet condensation / structure and chondrogenic differentiation ([1]; 0.25 μM CytoD, 10 μM XAV, Day 10 (FIG. 5F, 5G)): significantly disrupted the condensation process with the pellets completely disintegrated by Day 10
TGFβ1: pleomorphic growth factor commonly used to induce MSC chondrogenesis (R&D Systems) | significantly upregulated | – | – | – | – | – | – | – | – | – | – | – | – | – | –
Cc1c[nH]c(-c2cnc(NCCNc3ccc(C#N)cn3)nc2-c2ccc(Cl)cc2Cl)n1 [CHIR, CHIR99021] | – | minimal evidence of any micromass structure or Alcian Blue staining | strongly increased | strongly increased | minimal expression | minimal expression | significant downregulation | significant downregulation | the opposite effect | did not undergo condensation but became disintegrated | minimal GAG production | decreased pellet integrity | minimal PLA signal detected | dramatically increased | SOX9 gene expression (iPSC-MSC pellets; in ChM, Day 3 (FIG. 1C)): significant downregulation; β-catenin expression [3]: strongest expression of β-catenin
Oc1nc(-c2ccc(C(F)(F)F)cc2)nc2c1CSCC2 [XAV, XAV939] | – | better structural condensation and stronger Alcian Blue intensity | significantly decreased | significantly decreased | most significantly upregulated | most significantly upregulated | significant upregulation | significant upregulation | decreased expression | formed well-condensed spheres and strong Alcian Blue staining | significant increases | increased condensation of the pellets | significantly increase | lowest nuclear β-catenin levels | quantitation of GAG production in micromass culture ([2]; Day 10 (FIG. 3B)): highest production of GAG; N-cadherin expression [7]: strongly and most significantly upregulated; GAG production by Alcian Blue staining, XAV versus TGFβ3 ([1]; ChBM plus modulator, Day 10 (FIG. 3A bottom)): more rapidly induced; GAG production in in vivo differentiated samples ([8]; 10 μM): highest level of GAG production; GAG production in vivo compared to TGFβ3 agonism [8]: significantly increased; quantification of glycosaminoglycans (GAGs), Alcian Blue ([4]; 20 days, compared to ChM (FIG. 1A)): significant increase
B1 | significantly upregulated | – | increased expression | increased expression | did not increase expression | did not increase expression | – | – | – | formed well-condensed spheres and strong Alcian Blue staining | – | – | – | – | –
